# Experimental data published in paper PMC10095747, “Modulatory Effects of Atractylodin and β-Eudesmol on Human Cytochrome P450 Enzymes: Potential Drug-Drug Interactions” (Molecules, 2023).
# Where two headings read alike, the source gives them in different places.
# What was measured:
# rCYP2D6 = rCYP2D6 (Homo sapiens, UniProt P10635); test: luminogenic P450-Glo CYP450 inhibition assay, rCYP2D6; details: three independent experiments
# Source text: (§1) The luminescent cytochrome P450 assay was used to determine CYP450-mediated (CYP1A2, 2C9, 2C19, 2D6, and 3A4) metabolism of atractylodin and β-eudesmol. The assay consisted of each recombinant human CYP450 (rCYP450), control membranes lacking P450 activity, a luminogenic CYP450 substrate (luciferin-ME substrate for rCYP1A2, luciferin-H substrate for rCYP2C9, luciferin-H EGE substrate for rCYP2C19, luciferin-ME EGE substrate for rCYP2D6, and luciferin-IPA substrate for rCYP3A4), KPO4 buffer, luciferin free water, NADPH regeneration system, and a luciferin detection reagent. The rCYP450 enzymes were generated from a baculovirus-infected insect cell expression system. The concentrations of the recombinant CYPs used were 0.5 (rCYP1A2 and rCYP2C9), 0.25 (rCYP2C19 and rCYP2D6) or 0.2 (rCYP3A4) pmol (0.5μL) per reaction. […] A luciferin product was produced after adding 25 µL of NADPH Regeneration System (solution A, solution B, and luciferin-free water) and incubated at 37 °C for 10 (rCYP1A2 and rCYP3A4), 20 (rCYP2C19 and rCYP2C9) or 30 (rCYP2D6) minutes. The reaction was stopped and converted to a luminescent signal after adding Luciferin Detection Reagent (50 µL) and incubated at 25 °C for 20 min. The luminescence signals obtained were determined using a Varioskan® Flash microplate reader (Waltham, MA, USA). The magnitude of luminescence in all of the samples represented CYP450 activity. […] All stock solutions were diluted with luciferin-free water until the final concentration of organic solvent was less than 0.25% (v/v) of the total reaction. The concentration range of atractylodin and β-eudesmol used were 2.74–686 µM and 2.25–562 µM, respectively. […] The concentration that inhibited the activity of each rCYP450 by 50% (IC50) was calculated using Calcusyn software (Cambridge, UK). Data are reported as the median (range) of the three independent experiments.
# mCYP3A11 = test: ex vivo mCYP3A11 activity in mouse liver microsomes (nifedipine oxidation); details: daily oral 100 mg/kg body weight
# Source text: Phenacetin and nifedipine are substrates of CYP1A2 and CYP3A11, respectively. Both substrates are converted via the CYP enzyme to paracetamol and dehydronefedipine, respectively. The concentrations of paracetamol and dehydronefedipine were used to determine the activities of mCYP1A2 and mCYP3A11. The effects of atractylodin and β-eudesmol on mCYP1A2 and mCYP3A11 activities were, respectively, determined by measuring paracetamol (mCYP1A2-dependent metabolite) and dehydronifiedipine (mCYP3A11-dependent metabolite) concentrations.
# (§2) Eight-week-old male ICR (Imprinting Control Region) mice weighing 35–40 g were used to investigate the modulatory effects of atractylodin and β-eudesmol on mCYP1A2 and mCYP3A11. The study protocol was approved by the Ethics Committee for Animal Research at Thammasat University (protocol number 016/2020). All animals were obtained from Nomura Siam International Co., Ltd. (Bangkok, Thailand). The animals were acclimatized for one week before the experiments. A total of 36 mice were allocated to three groups (i) control group (3 mice), (ii) atractylodin-treated group, and (iii) β-eudesmol-treated group. For atractylodin and β-eudesmol-treated groups, animals were fed with 100 mg/kg body weight of each compound for 1, 7, 14, and 21 (3 mice for each dose). Experiments were performed under the guidelines for the care and use of laboratory animals in a controlled environment of 12 h dark/light cycle, temperature 22 ± 2 °C, and relative humidity 30–70% at the Thammasat University Animal Center. Animals were observed daily for changes in signs and symptoms by a veterinarian. Mice were allowed access to the food pellets and water ad libitum.
# Mouse liver samples were cut into small pieces, and the liver microsomes were prepared as described previously. The concentrations of proteins in the microsomes were determined using Pierce™ BCA Protein Assay Kit. mCYP1A2 and mCYP3A11 activities were evaluated based on phenacetin O-deethylation and nifedipine oxidation activities, respectively. The incubation mixture of 500 µL consisted of microsomes, substrate ([…]), and NADPH. […] The final organic solvent concentration in the incubation mixture was not higher than 1%. Each experiment was repeated three times (duplicated each). Determination of the concentrations of metabolites of mCYP1A2 (paracetamol) and mCYP3A11 (dehydronifedipine) in the reaction was performed using HPLC Agilent 1260 Infinity II with mobile gradient phase between methanol and distilled water at an initial ratio of 20:80 (v:v) and UV detection (240 nm). Calibration curves for both CYP450 activities were created over a concentration range of 1–50 µM. Oxidized nifedipine concentrations were determined using HPLC as follows: UV detection at 235 nm with an isocratic mobile phase consisting of methanol and distilled water (70:30, v:v). […] In each analytical batch, quality control (QC) samples were run in duplicate at low, medium, and high concentrations. Acceptance criteria were four out of six QC analyses falling within 100 ± 15% of the nominal values.
# rCYP3A4 = rCYP3A4 (Homo sapiens, UniProt P08684); test: luminogenic P450-Glo CYP450 inhibition assay, rCYP3A4; details: three independent experiments
# Source text: as §1
# mCYP1A2 mRNA = test: ex vivo mCYP1A2 mRNA expression in mouse livers (real-time PCR); details: male ICR mice, daily oral 100 mg/kg body weight, vs control
# Source text: as §2
# Total mRNA was extracted from mouse livers using Trizol according to the manufacturer’s instructions. The concentration of mRNA was quantified by a nanodrop spectrophotometer. The First-Strand cDNA Synthesis Kit was used to generate cDNA from RNA. The CFX96 Touch Real-Time PCR Detection System was used to determine the expressions of mCYP1A2, mCYP3A11, and β-actin genes using the iTaq Universal SYBR Green Supermix. The PCR condition and the delta-delta Ct calculation were according to the previously described article. All primers used in this study were synthesized by Gibthai Co. Ltd. (Bangkok, Thailand).
# hCYP2C19 = test system: hCYP2C19; set-up: method as in PMID 35139770; details: ligand-binding difference spectroscopy; cited from earlier work
# hCYP3A4 = test system: hCYP3A4; set-up: method as in PMID 35139770; details: ligand-binding difference spectroscopy; cited from earlier work
# hCYP1A2 = test system: hCYP1A2; set-up: method as in PMID 35139770; details: ligand-binding difference spectroscopy; cited from earlier work
# rCYP3A4, sequence (P08684 whole entry): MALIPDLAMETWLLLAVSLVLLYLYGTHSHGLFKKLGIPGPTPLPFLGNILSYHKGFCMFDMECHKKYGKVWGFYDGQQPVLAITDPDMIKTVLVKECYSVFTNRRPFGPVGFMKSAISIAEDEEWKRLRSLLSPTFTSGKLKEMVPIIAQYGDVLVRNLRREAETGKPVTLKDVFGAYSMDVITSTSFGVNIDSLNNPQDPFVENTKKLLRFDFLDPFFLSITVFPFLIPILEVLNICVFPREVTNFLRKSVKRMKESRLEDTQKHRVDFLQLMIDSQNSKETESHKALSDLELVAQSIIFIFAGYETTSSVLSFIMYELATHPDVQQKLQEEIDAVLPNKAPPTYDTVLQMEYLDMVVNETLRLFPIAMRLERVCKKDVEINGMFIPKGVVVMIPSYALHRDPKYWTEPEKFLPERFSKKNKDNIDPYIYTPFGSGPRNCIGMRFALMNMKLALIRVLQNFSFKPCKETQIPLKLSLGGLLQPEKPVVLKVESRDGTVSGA
# rCYP2D6, sequence (P10635 whole entry): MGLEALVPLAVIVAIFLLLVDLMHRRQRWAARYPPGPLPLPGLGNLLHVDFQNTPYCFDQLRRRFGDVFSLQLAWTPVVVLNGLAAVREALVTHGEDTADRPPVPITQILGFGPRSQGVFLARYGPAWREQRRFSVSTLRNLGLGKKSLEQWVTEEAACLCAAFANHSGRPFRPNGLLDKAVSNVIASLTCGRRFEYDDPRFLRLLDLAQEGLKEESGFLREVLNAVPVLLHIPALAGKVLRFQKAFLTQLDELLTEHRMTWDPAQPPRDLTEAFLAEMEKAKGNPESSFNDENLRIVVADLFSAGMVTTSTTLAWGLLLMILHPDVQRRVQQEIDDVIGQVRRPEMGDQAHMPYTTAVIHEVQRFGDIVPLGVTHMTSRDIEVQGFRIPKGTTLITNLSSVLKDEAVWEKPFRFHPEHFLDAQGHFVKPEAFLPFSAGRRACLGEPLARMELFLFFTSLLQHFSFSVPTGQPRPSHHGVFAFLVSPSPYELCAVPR
structure (smiles),measurement,setting,value
C/C=C/C#CC#C/C=C/c1ccco1 [Atractylodin],Median IC50 (Range) rCYP2D6,rCYP2D6; median (range),>125 µg/mL
same,IC50,"rCYP2D6; read-out: Median IC50 (Range) rCYP2D6, median (range)",> 686 µM
same,Dehydronifedipine concentration (mCYP3A11 activity),"mCYP3A11; 1 day, control 6.70, 100 mg/kg",significant reduction
same,Dehydronifedipine concentration (mCYP3A11 activity),"mCYP3A11; 1 day, control 6.70, listed as Atactylodin, 100 mg/kg",5.35 µM
same,Dehydronifedipine concentration (mCYP3A11 activity),"mCYP3A11; 7 days, control 6.90, 100 mg/kg",significant reduction
same,Dehydronifedipine concentration (mCYP3A11 activity),"mCYP3A11; 7 days, control 6.90, listed as Atactylodin, 100 mg/kg",5.20 µM
same,Dehydronifedipine concentration (mCYP3A11 activity),"mCYP3A11; 14 days, control 7.55, 100 mg/kg",significant reduction
same,Dehydronifedipine concentration (mCYP3A11 activity),"mCYP3A11; 14 days, control 7.55, listed as Atactylodin, 100 mg/kg",6.10 µM
same,Dehydronifedipine concentration (mCYP3A11 activity),"mCYP3A11; 21 days, control 7.75, 100 mg/kg",significant reduction
same,Dehydronifedipine concentration (mCYP3A11 activity),"mCYP3A11; 21 days, control 7.75, listed as Atactylodin, 100 mg/kg",3.75 µM
same,Median IC50 (Range) rCYP3A4,rCYP3A4; median (range),>125 µg/mL
same,IC50,"rCYP3A4; read-out: Median IC50 (Range) rCYP3A4, median (range)",> 686 µM
same,Fold-changes of mCYP1A2 mRNA levels,"mCYP1A2 mRNA; 1 day, 100 mg/kg",1.6 fold
same,Fold-changes of mCYP1A2 mRNA levels,"mCYP1A2 mRNA; 1 day, listed as Atactylodin, 100 mg/kg",1.60 fold
same,Fold-changes of mCYP1A2 mRNA levels,"mCYP1A2 mRNA; 7 days, 100 mg/kg",1.2 fold
same,Fold-changes of mCYP1A2 mRNA levels,"mCYP1A2 mRNA; 7 days, listed as Atactylodin, 100 mg/kg",1.20 fold
same,Fold-changes of mCYP1A2 mRNA levels,mCYP1A2 mRNA; 14 days,0.89 fold
same,Fold-changes of mCYP1A2 mRNA levels,mCYP1A2 mRNA; 21 days,0.71 fold
C=C1CCC[C@]2(C)CC[C@@H](C(C)(C)O)C[C@@H]12 [β-Eudesmol],binding to hCYP2C19,hCYP2C19,not
same,binding to hCYP3A4,hCYP3A4,bound
same,IC50,"rCYP2D6; Median IC50 (Range) rCYP2D6, median (range)",> 562 µM
same,Dehydronifedipine concentration (mCYP3A11 activity),"mCYP3A11; 1 day, control 6.70",6.90 µM
same,Dehydronifedipine concentration (mCYP3A11 activity),"mCYP3A11; 7 days, control 6.90",7.5 µM
same,Dehydronifedipine concentration (mCYP3A11 activity),"mCYP3A11; 14 days, control 7.55, listed as β-eudesmol, 100 mg/kg",significantly reduced
same,Dehydronifedipine concentration (mCYP3A11 activity),"mCYP3A11; 14 days, control 7.55, listed as β‐eudesmol, 100 mg/kg",4.00 µM
same,Dehydronifedipine concentration (mCYP3A11 activity),"mCYP3A11; 21 days, control 7.75, listed as β-eudesmol, 100 mg/kg",significantly reduced
same,Dehydronifedipine concentration (mCYP3A11 activity),"mCYP3A11; 21 days, control 7.75, listed as β‐eudesmol, 100 mg/kg",3.20 µM
same,IC50,"rCYP3A4; Median IC50 (Range) rCYP3A4, median (range)",219 µM
same,binding to hCYP1A2,hCYP1A2,bound
same,Fold-changes of mCYP1A2 mRNA levels,mCYP1A2 mRNA; 1 day,2.63 fold
same,Fold-changes of mCYP1A2 mRNA levels,mCYP1A2 mRNA; 7 days,1.44 fold
same,Fold-changes of mCYP1A2 mRNA levels,mCYP1A2 mRNA; 14 days,1.37 fold
same,Fold-changes of mCYP1A2 mRNA levels,mCYP1A2 mRNA; 21 days,0.91 fold
